As usually defined, the % Inhibition is the drop in the measured response relative to a control, in per cent. A word on the pIC50: it is the IC50 on a negative log10 scale, so that one unit is a factor of ten. High values mean a small IC50, low ones a large IC50.

From patent US7595401B2, “Therapeutic compounds and their use in cancer” (Myriad Pharmaceuticals, Inc., priority 2006, dated 2009) come the findings set out here.

pIC50: −log10 of the molar value.

The first assay relates to purified human Hsp90. Nature of the assay: Binding Assay: fluorescence polarization with BODIPY-labeled geldanamycin. The following applies: 5 μM compound, BODIPY-GM 10 nM, Hsp90 30 nM. The method in brief:
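Compounds in 2% DMSO final compete with 10 nM BODIPY-GM for 30 nM purified human Hsp90, incubated overnight at room temperature in pH 7.3 HEPES buffer containing Na2MoO4 and DTT. Polarization (mP, ex/em 485/530) normalized to DMSO gives percent inhibition; autofluorescence-confounded data excluded.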
As to `CC(=O)N1CCC(CCn2cnc(N)c3nc(Sc4cc5c(cc4Br)OCO5)nc2-3)CC1` [Example 365, 3-[2-(1-Acetylpiperidin-4-yl)ethyl]-8-[(6-bromo-1,3-benzodioxol-5-yl)thio]-3H-purin-6-amine], the “% Inhibition at 5 μM Compound Concentration” value (“% Inhibition” for short) came to 31%.

As to `CS(=O)(=O)N1CCC(CCn2cnc(N)c3nc(Sc4cc5c(cc4Br)OCO5)nc2-3)CC1` [Example 366, 8-[(6-Bromo-1,3-benzodioxol-5-yl)thio]-3-{2-[1-(methylsulfonyl)piperidin-4-yl]ethyl}-3H-purin-6-amine], the “% Inhibition” value worked out at 20%.

Regarding `CS(=O)(=O)N1CCCCC1CCn1cnc(N)c2nc(Sc3cc4c(cc3Br)OCO4)nc1-2` (centres unmarked) [Example 373, 8-[(6-Bromo-1,3-benzodioxol-5-yl)thio]-3-{2-[1-(methylsulfonyl)piperidin-2-yl]ethyl}-3H-purin-6-amine], the “% Inhibition” value came out at 15%.

Take `Nc1ncn(CCn2ccnc2)c2nc(Sc3cc4c(cc3Br)OCO4)nc1-2` [Example 380, 8-[(6-Bromo-1,3-benzodioxol-5-yl)thio]-3-[2-(1H-imidazol-1-yl)ethyl]-3H-purin-6-amine]: the “% Inhibition” value came to 4%.

Take `Nc1ncn(CCC2CCN(S(=O)(=O)C(F)(F)F)CC2)c2nc(Sc3cc4c(cc3Br)OCO4)nc1-2` [Example 388, 8-[(6-Bromo-1,3-benzodioxol-5-yl)thio]-3-(2-{1-[(trifluoromethyl)sulfonyl]piperidin 4-yl}ethyl)-3H-purin-6-amine]: the “% Inhibition” value was 13%.

Regarding `CC(C)(C)OC(=O)N1CCC(=CCn2cnc(N)c3nc(Sc4cc5c(cc4Br)OCO5)nc2-3)CC1` [Example 389, tert-Butyl 4-(2-{6-amino-8-[(6-bromo-1,3-benzodioxol-5-yl)thio]-3H-purin-3-yl}ethylidene)piperidine-1-carboxylate], the “% Inhibition” value came out at 38%.

For the compound `CC(C)(C)OC(=O)N1CCC[C@H](CCn2cnc(N)c3nc(Sc4cc5c(cc4Br)OCO5)nc2-3)C1` [Example 393, tert-Butyl (3R)-3-(2-{6-amino-8-[(6-bromo-1,3-benzodioxol-5-yl)thio]-3H-purin-3-yl}ethyl)piperidine-1-carboxylate], the “% Inhibition” value was determined as 0%.

Take `CC(C)(C)OC(=O)N1CCCC[C@@H]1CCn1cnc(N)c2nc(Sc3cc4c(cc3Br)OCO4)nc1-2` [Example 395, tert-Butyl (2R)-2-(2-{6-amino-8-[(6-bromo-1,3-benzodioxol-5-yl)thio]-3H-purin-3-yl}ethyl)piperidine-1-carboxylate]: the “% Inhibition” value amounted to 0%.

In the case of `Nc1ncn(CCC2CCCCN2S(=O)(=O)C(F)(F)F)c2nc(Sc3cc4c(cc3Br)OCO4)nc1-2` (centres unmarked) [Example 397, 8-[(6-Bromo-1,3-benzodioxol-5-yl)thio]-3-(2-{1-[(trifluoromethyl)sulfonyl]piperidin 2-yl}ethyl)-3H-purin-6-amine], the “% Inhibition” value was 1%.

Consider `CC(=O)N1CCCC(CCn2cnc(N)c3nc(Sc4cc5c(cc4Br)OCO5)nc2-3)C1` (centres unmarked) [Example 401, 3-[2-(1-Acetylpiperidin-3-yl)ethyl]-8-[(6-bromo-1,3-benzodioxol-5-yl)thio]-3H-purin-6-amine], for which the “% Inhibition” value is 2%.

The same assay, now with this note: BODIPY-GM 10 nM, Hsp90 30 nM.
Compound `Nc1ncnc2c1nc(Sc1cc3c(cc1Br)OCO3)n2CCC1CCN(C=O)CC1` [Example 363, 4-(2-{6-Amino-8-[(6-bromo-1,3-benzodioxol-5-yl)thio]-9H-purin-9-yl}ethyl)piperidine-1-carbaldehyde] showed a pIC50 of 6.52.

On to `CC(=O)N1CCC(CCn2c(Sc3cc4c(cc3Br)OCO4)nc3c(N)ncnc32)CC1` [Example 364, 9-[2-(1-Acetylpiperidin-4-yl)ethyl]-8-[(6-bromo-1,3-benzodioxol-5-yl)thio]-9H-purin-6-amine], for which the pIC50 was 6.99.

Compound `CC(C)(C)OC(=O)N1CCOC(CCn2c(Sc3cc4c(cc3Br)OCO4)nc3c(N)ncnc32)C1` (centres unmarked) [Example 367, tert-Butyl 2-(2-{6-amino-8-[(6-bromo-1,3-benzodioxol-5-yl)thio]-9H-purin-9-yl}ethyl)morpholine-4-carboxylate] showed a negative-log IC50 (pIC50) of less than 4.60.

In turn, `CS(=O)(=O)N1CCCC(CCn2c(Sc3cc4c(cc3Br)OCO4)nc3c(N)ncnc32)C1` (centres unmarked) [Example 369, 8-[(6-Bromo-1,3-benzodioxol-5-yl)thio]-9-{2-[1-(methylsulfonyl)piperidin-3-yl]ethyl}-9H-purin-6-amine] had a negative logarithm of the IC50 (pIC50) of 7.46.

Turning to `CS(=O)(=O)N1CCCC(CCn2cnc(N)c3nc(Sc4cc5c(cc4Br)OCO5)nc2-3)C1` (centres unmarked) [Example 370, 8-[(6-Bromo-1,3-benzodioxol-5-yl)thio]-3-{2-[1-(methylsulfonyl)piperidin-3-yl]ethyl}-3H-purin-6-amine], the pIC50 was 6.22.

Turning to `COc1ccc(OC)c(Sc2nc3c(N)ncnc3n2CCC2CCCCN2S(C)(=O)=O)c1` (centres unmarked) [Example 371, 8-[(2,5-Dimethoxyphenyl)thio]-9-{2-[1-(methylsulfonyl)piperidin-2-yl]ethyl}-9H-purin-6-amine], the negative logarithm of the IC50 (pIC50) was 6.15.

`CS(=O)(=O)N1CCCCC1CCn1c(Sc2cc3c(cc2Br)OCO3)nc2c(N)ncnc21` (centres unmarked) [Example 372, 8-[(6-Bromo-1,3-benzodioxol-5-yl)thio]-9-{2-[1-(methylsulfonyl)piperidin-2-yl]ethyl}-9H-purin-6-amine] gave a negative logarithm of the IC50 (pIC50) of 7.00.

Consider `CS(=O)(=O)N1CCC(CCn2c(Sc3cc4c(cc3Br)OCO4)nc3c(N)ncnc32)CC1` [Example 378, 8-[(6-Bromo-1,3-benzodioxol-5-yl)thio]-9-{2-[1-(methylsulfonyl)piperidin-4-yl]ethyl}-9H-purin-6-amine], for which the pIC50 was 6.62. Compared with the last compound, the pIC50 is 0.38 log units lower.

`Nc1ncnc2c1nc(Sc1cc3c(cc1Br)OCO3)n2CCn1ccnc1` [Example 381, 8-[(6-Bromo-1,3-benzodioxol-5-yl)thio]-9-[2-(1H-imidazol-1-yl)ethyl]-9H-purin-6-amine] had a pIC50 of 6.41. Compared with the last compound, the pIC50 is 0.21 log units lower.

Take `CC(=O)N1CCN(CCn2c(Sc3cc4c(cc3Br)OCO4)nc3c(N)ncnc32)CC1` [Example 382, 9-[2-(4-Acetylpiperazin-1-yl)ethyl]-8-[(6-bromo-1,3-benzodioxol-5-yl)thio]-9H-purin-6-amine]: the pIC50 is 6.85.

Take `CC(=O)N1CCN(CCn2cnc(N)c3nc(Sc4cc5c(cc4Br)OCO5)nc2-3)CC1` [Example 383, 3-[2-(4-Acetylpiperazin-1-yl)ethyl]-8-[(6-bromo-1,3-benzodioxol-5-yl)thio]-3H-purin-6-amine]: the negative-log IC50 (pIC50) is 4.68.

Take `COc1ccc(OC)c(Sc2nc3c(N)ncnc3n2CCC2(F)C(F)(F)C(F)(F)C(F)(F)C(F)(F)C2(F)F)c1` [Example 384, 8-[(2,5-Dimethoxyphenyl)thio]-9-[2-(undecafluorocyclohexyl)ethyl]-9H-purin-6-amine]: the negative logarithm of the IC50 (pIC50) was less than 6.00.

`CCCN1CCCCC1CCn1c(Sc2cc3c(cc2Br)OCO3)nc2c(N)ncnc21` (centres unmarked) [Example 386, 8-[(6-Bromo-1,3-benzodioxol-5-yl)thio]-9-[2-(1-propylpiperidin-2-yl)ethyl]-9H-purin-6-amine]: the pIC50 was 6.96.

As for `Nc1ncnc2c1nc(Sc1cc3c(cc1Br)OCO3)n2CCC1CCN(S(=O)(=O)C(F)(F)F)CC1` [Example 387, 8-[(6-Bromo-1,3-benzodioxol-5-yl)thio]-9-(2-{1-[(trifluoromethyl)sulfonyl]piperidin 4-yl}ethyl)-9H-purin-6-amine], the negative-log IC50 (pIC50) is less than 5.10.

In the case of `CC(C)(C)OC(=O)N1CCC(=CCn2c(Sc3cc4c(cc3Br)OCO4)nc3c(N)ncnc32)CC1` [Example 390, tert-Butyl 4-(2-{6-amino-8-[(6-bromo-1,3-benzodioxol-5-yl)thio]-9H-purin-9-yl}ethylidene)piperidine-1-carboxylate], the pIC50 is 6.51.

`CC(C)(C)OC(=O)N1CCC[C@@H](CCn2c(Sc3cc4c(cc3Br)OCO4)nc3c(N)ncnc32)C1` [Example 391, tert-Butyl (3S)-3-(2-{6-amino-8-[(6-bromo-1,3-benzodioxol-5-yl)thio]-9H-purin-9-yl}ethyl)piperidine-1-carboxylate] gave a negative-log IC50 (pIC50) of 5.92. Compared with the last compound, the pIC50 is 0.59 log units lower.

Compound `CC(C)(C)OC(=O)N1CCC[C@H](CCn2c(Sc3cc4c(cc3Br)OCO4)nc3c(N)ncnc32)C1` [Example 392, tert-Butyl (3R)-3-(2-{6-amino-8-[(6-bromo-1,3-benzodioxol-5-yl)thio]-9H-purin-9-yl}ethyl)piperidine-1-carboxylate] showed a pIC50 of 5.54. This pIC50 is 0.38 log units lower than that of the compound before.

In the case of `CC(C)(C)OC(=O)N1CCCC[C@@H]1CCn1c(Sc2cc3c(cc2Br)OCO3)nc2c(N)ncnc21` [Example 394, tert-Butyl (2R)-2-(2-{6-amino-8-[(6-bromo-1,3-benzodioxol-5-yl)thio]-9H-purin-9-yl}ethyl)piperidine-1-carboxylate], the pIC50 was 6.15.

With `Nc1ncnc2c1nc(Sc1cc3c(cc1Br)OCO3)n2CCC1CCCCN1S(=O)(=O)C(F)(F)F` (centres unmarked) [Example 396, 8-[(6-Bromo-1,3-benzodioxol-5-yl)thio]-9-(2-{1-[(trifluoromethyl)sulfonyl]piperidin 2-yl}ethyl)-9H-purin-6-amine], the negative logarithm of the IC50 (pIC50) was 6.09.

Consider `CC(C)(C)OC(=O)N[C@H]1CC[C@@H](CCn2c(Sc3cc4c(cc3Br)OCO4)nc3c(N)ncnc32)CC1` [Example 398, tert-Butyl [cis-4-(2-{6-amino-8-[(6-bromo-1,3-benzodioxol-5-yl)thio]-9H-purin-9-yl}ethyl)cyclohexyl]carbamate], for which the negative logarithm of the IC50 (pIC50) was 6.85.

`CC(C)(C)OC(=O)N[C@H]1CC[C@@H](CCn2cnc(N)c3nc(Sc4cc5c(cc4Br)OCO5)nc2-3)CC1` [Example 399, tert-Butyl [cis-4-(2-{6-amino-8-[(6-bromo-1,3-benzodioxol-5-yl)thio]-3H-purin-3-yl}ethyl)cyclohexyl]carbamate] gave a pIC50 of 6.02. Against the preceding compound, the pIC50 is 0.83 log units lower.

Turning to `CC(=O)N1CCCC(CCn2c(Sc3cc4c(cc3Br)OCO4)nc3c(N)ncnc32)C1` (centres unmarked) [Example 400, 9-[2-(1-Acetylpiperidin-3-yl)ethyl]-8-[(6-bromo-1,3-benzodioxol-5-yl)thio]-9H-purin-6-amine], the pIC50 was 5.22. This pIC50 is 0.80 log units lower than that of the compound before.
